Measured values published in article PMC7070731, “Cytotoxic Activity of Organotin(IV) Derivatives with Triazolopyrimidine Containing Exocyclic Oxygen Atoms” (Molecules, 2020).

Legend:
[1] = system: HCT-116 (human colorectal carcinoma) cells; assay: MTT cytotoxicity assay, HCT-116; format: cell-based; settings: for IC50: 24 h treatment, read-out: IC50 (nM ± SD) HCT-116; for Influence on cell growth / viability, HCT-116: 24 h, 0.01–1 µM range
Procedure: (§1) HTC116 (human colorectal carcinoma), HepG2 (human hepatocellular carcinoma), MCF-7 (human breast cancer), 16-HBE (human bronchial epithelium) and Caco-2 (human colorectal carcinoma) cell lines were purchased from American Type Culture Collection, Rockville, MD, USA. All cell lines were grown in RPMI medium supplemented with L-glutamine (2 mM), 10% fetal bovine serum (FBS), penicillin (100 U/mL), streptomycin (100 µg/mL) and gentamicin (5 μg/mL). Cells were maintained in log phase by seeding twice a week at a density of 3 × 10^8 cells/L in humidified 5% CO2 atmosphere, at 37 °C. In all experiments, after plating, cells were allowed to adhere overnight and then treated with the compounds or vehicle alone (control cells), whereas Caco-2 cells were treated 15 days after confluence, at which time the cells are differentiated in normal intestinal-like cells. No differences were found between cells treated with DMSO 0.1% and untreated cells in terms of cell number and viability.
(§2) Cytotoxic activity of the organotin compounds against human tumor cell lines (HCT-116, HepG2 and MCF-7) and human normal cells (16-HBE and intestinal-like differentiated Caco2 cells) was determined using the MTT colorimetric assay based on the reduction of 3-(4,5-dimethyl-2-thiazolyl)bromide-2,5-diphenyl-2H-tetrazolium (MTT) to purple formazan using mitochondrial dehydrogenases of living cells, as reported. This method is commonly used to illustrate inhibition of cellular proliferation. Monolayer cultures were treated for 24 h with various concentrations (0.01-1 µM) of the drugs. Cisplatin was used for comparison. Briefly, all cell lines were seeded at 1.0 × 10^4 cells/well in 96-well plates containing 200 μL RPMI. When appropriated, cells were washed with fresh medium and incubated with the compounds in RPMI. After incubation, cells were washed, and 50 μL FBS-free medium containing 5 mg/mL MTT was added. The medium was discarded after a 2 h incubation at 37 °C by centrifugation, and formazan blue formed in the cells was dissolved in DMSO. The absorbance, measured at 570 nm in a microplate reader (Bio-RAD, Hercules, CA, USA) of MTT formazan of control cells was taken as 100% of viability. The growth inhibition activity of compounds was estimated by comparison with the not-treated control. The values for the inhibitory concentration for 50% of the tested compounds (IC50) were calculated using a sigmoidal model using GraphPad Prism 5.02 from GraphPad Software (San Diego, CA, USA). Each experiment was repeated three times in triplicate to obtain the mean values.

[2] = system: HepG2 (human hepatocellular cancer) cells; assay: MTT cytotoxicity assay, HepG2; format: cell-based; settings: for IC50: 24 h treatment, read-out: IC50 (nM ± SD) HepG2; for Influence on cell growth / viability, HepG2: 24 h, 0.01–1 µM range
Procedure: as §1, §2

[3] = system: MCF-7 (human breast cancer) cells; assay: MTT cytotoxicity assay, MCF-7; format: cell-based; settings: for IC50: 24 h treatment, read-out: IC50 (nM ± SD) MCF-7; for Influence on cell growth / viability, MCF-7: 24 h, 0.01–1 µM range
Procedure: as §1, §2

[4] = system: HCT-116 cells; assay: Mitochondrial transmembrane potential, DiOC6 flow cytometry; format: cell-based, human; settings: 24 h, control 3.2%
Procedure: Mitochondrial transmembrane potentials (Δψm) were assessed using flow cytofluorometry, with the cationic lipophilic dye 3,3′-dihexyloxacarbocyanine iodide(3) (DiOC6) (Molecular Probes, Inc., Life Technologies Italia, Monza, Italy), which accumulates in the mitochondrial matrix. Changes in mitochondrial membrane potential are indicated by a reduction in the DiOC6-induced fluorescence intensity. After 24 h treatment, cells were incubated with DiOC6 at a 40 nmol/L final concentration, for 15 min at 37 °C. After centrifugation, cells were washed with phosphate buffer saline (PBS) and suspended in 500 μL PBS. Then, samples of 1.0 × 10^4 cells were subjected to FACS analysis.

[5] = system: HCT-116 cells; assay: Intracellular ROS, DCFH-DA flow cytometry; format: cell-based, human; settings: 24 h, control 1.9%
Procedure: ROS level was monitored by measuring fluorescence changes that resulted from intracellular oxidation of 2′,7′-dichlorofluorescin diacetate (DCFH-DA). DCFH-DA, at 10 μM final concentration, was added to the cell medium 30 min before the end of the treatment. The cells were collected using centrifugation for 5 min at 2000 rpm at 4 °C, washed, suspended in PBS and immediately subjected to FACS analysis. At least 1 × 10^4 cells were analyzed for each sample.

[6] = system: intestinal normal-like differentiated Caco-2 cells; assay: MTT viability assay, normal-like differentiated Caco-2 cells; format: cell-based, human; settings: 24 h; for Effect on cell survival, normal-like differentiated Caco-2 cells: MTT, reduction seen in the 1–10 μM range; for CC50: differentiated Caco-2, MTT, concentration lethal to 50% of the normal cells, read-out: Normal-Like Intestinal Cells LC50
Procedure: as §1
as §2, with “Monolayer cultures were treated for 24 h with various concentrations (0.01-1 µM) of the drugs.” left out
(§3) Formazan of control cells was taken as 100% viability and the 50% lethal concentrations of the synthesized complexes (LC50) were determined by plotting the graph of cell viability versus the concentrations. The selectivity index (SI) values were calculated for each compound by dividing the LC50 of normal differentiated Caco2 or 16-HBE cells by the IC50 of HCT-116 tumor cells. Each experiment was repeated three times in triplicate.

[7] = system: human bronchial epithelial cells (16-HBE); assay: MTT viability assay, 16-HBE cells; format: cell-based; settings: 24 h; for CC50: concentration lethal to 50% of the normal cells, read-out: 16-HBE Cells LC50; for Effect on cell survival, 16-HBE cells: reduction seen in the 1–10 μM range
Procedure: as §1
as §2, with “Monolayer cultures were treated for 24 h with various concentrations (0.01-1 µM) of the drugs.” left out
as §3

[8] = system: HCT-116 cells; assay: Cell cycle analysis, propidium iodide flow cytometry; format: cell-based, human; settings: HCT-116, 24 h of treatment
Procedure: Cell cycle stage was analyzed using flow cytometry. Aliquots of 1.0 × 10^6 cells were harvested using centrifugation, washed with PBS and incubated in the dark in a PBS solution containing Triton X100 (0.1%, v/v), 20 μg/mL propidium iodide (PI) and 200 µg/mL RNase, for 30 min, at room temperature. Then, samples were immediately subjected to FACS analysis. At least 1 × 10^4 events were analyzed for each sample.

[9] = system: p53; assay: Western blot, p53 level in HCT 116 cells; format: cell-based, human; settings: 24 h, immunoblotting
Procedure: (§4) After treatment with the compound, protein extracts were prepared and equal amounts of protein samples (80 μg/lane), subjected to SDS-PAGE, were transferred to nitrocellulose membrane as previously reported. The immunoblot was incubated overnight at 4 °C with blocking solution (5% skim milk), followed by incubation with anti-p21 (F-5, Cat No SC-6246 Santa Cruz Biotechnology) or anti-p53 (DO-1, Cat No SC-126, Santa Cruz Biotechnology) for 1 h at room temperature. Blots were washed two times with Tween 20/Tris-buffered saline (TTBS) and incubated with a 1:2000 dilution of horseradish peroxidase (HRP)-conjugated anti-IgG antibody (Dako Denmark, Glostrup, Denmark) for 1 h at room temperature. Blots were again washed five times with TTBS and then developed using enhanced chemiluminescence (Amersham Life Science, Arlington Heights, IL, USA.). Immunoreactions were also performed using β-actin antibody as loading controls.

[10] = system: p21^WAF1; assay: Western blot, p21WAF1 level in HCT 116 cells; format: cell-based, human; settings: 24 h, immunoblotting
Procedure: as §4

Compound | IC50 [1] | IC50 [2] | IC50 [3] | Cells with dissipated mitochondrial membrane potential ([4]; 20 μM) | AY, ROS production (DCFH-DA fluorescent cells) ([5]; 20 μM) | Effect on cell survival, normal-like differentiated Caco-2 cells [6] | CC50 [6] | CC50 [7] | Effect on cell survival, 16-HBE cells [7] | Cells with dissipated mitochondrial membrane potential ([4]; 0.1 μM) | AY, ROS production (DCFH-DA fluorescent cells) ([5]; 0.1 μM) | Effect on cell cycle distribution [8] | Effect on level of p53 [9] | Effect on level of p21 [10] | Influence on cell growth / viability, HCT-116 [1] | Influence on cell growth / viability, HepG2 [2] | Influence on cell growth / viability, MCF-7 [3]
N.N.[Cl][Pt][Cl] [Cisplatin, reference compound] | 46000 nM | 65000 nM | 10000 nM | 17.4% | 23.5% |  |  |  |  |  |  |  |  |  |  |  | 
CCC[CH2][Sn]([CH2]CCC)([CH2]CCC)[O]c1ccn2ncnc2n1 [Compound 2, n-Bu3Sn(5tpO)] | 70 ± 8 nM | 70 ± 6 nM | 233 ± 21 nM |  |  | reduction of the cell survival | 6000 ± 400 nM | 17000 ± 1000 nM | reduction of the cell survival | 23.5% | 22.5% | block of cell duplication in the G0/G1 phase | did not vary | did not vary |  |  | 
[CH3][Sn]([CH3])([CH3])[O]c1ccn2ncnc2n1 [Compound 1, Me3Sn(5tpO)] | > 1000 nM | > 1000 nM | > 1000 nM |  |  |  |  |  |  |  |  |  |  |  | no influence on cell growth | no influence on cell growth | no influence on cell growth
Cc1cc([O][Sn]([CH3])([CH3])[CH3])n2ncnc2n1 [Compound 3, Me3Sn(mtpO)] | > 1000 nM | > 1000 nM | > 1000 nM |  |  |  |  |  |  |  |  |  |  |  | no influence on cell growth | no influence on cell growth | no influence on cell growth
n-Bu3Sn(HtpO2) [Compound 5] | 101 ± 11 nM | 117 ± 10 nM | 487 ± 47 nM |  |  | reduction of the cell survival | 12000 ± 1000 nM | 22000 ± 1000 nM | reduction of the cell survival | 18.3% | 20.2% | block of cell duplication in the G0/G1 phase | did not vary | did not vary |  |  | 
Ph3Sn(HtpO2) [Compound 6] | 60 ± 5 nM | 63 ± 5 nM | 102 ± 9 nM |  |  | did not affect the cell viability at any assayed concentration |  |  | did not affect the cell viability at any assayed concentration | 25.1% | 25.3% | cell cycle arrest in phase G2/M |  |  |  |  | 
CCC[CH2][Sn]([CH2]CCC)([CH2]CCC)[O]c1cc(C)nc2ncnn12 [Compound 4, n-Bu3Sn(mtpO)] | 34 ± 3 nM | 53 ± 6 nM | 118 ± 10 nM |  |  | reduction of the cell survival | 5000 ± 400 nM | 11000 ± 1000 nM | reduction of the cell survival | 28.5% | 27.3% | block of cell duplication in the G0/G1 phase | did not vary | did not vary |  |  | 
